From ChEMBL document CHEMBL1201862, “PubChem BioAssay data set” (2004)
Calls of active or inactive are those of the source.

Key:
Protein S100-A4 = Protein S100-A4 (Homo sapiens, UniProt P26447); test: S100A4-myosin IIA binding inhibitor potency, dose response, biochemical, fluorescence polarization, cherry-picked hits (AID 687001); type: functional
Nonstructural protein 1 = Nonstructural protein 1 (Influenza A virus, UniProt Q194T2); type: functional, Influenza A virus (A/California/07/2009(H1N1))
[1] = MITF Orthogonal Assay: SK-MEL-5 CTG Assay Measured in Cell-Based System Using Plate Reader - 2084-02_Inhibitor_Dose_DryPowder_Activity_Set7.; type: functional
[2] = MITF: Counter assay: A375 proliferation Measured in Cell-Based System Using Plate Reader - 2084-03_Inhibitor_Dose_DryPowder_Activity_Set8.; type: functional; settings: A-375
[3] = target: T1, Scavenger receptor class B member 1 (Mus musculus, UniProt Q61009); test: inhibitors of SR-BI dependent HDL uptake, dose response, ldlA[mSR-BI] CHO cells, fluorescence plate reader, dry powder, set 9 (AID 623880); type: functional, cell-based
[4] = target: T1, Scavenger receptor class B member 1; test: inhibitors of SR-BI-mediated HDL uptake, dose response, cell-based, ldlA[mSR-BI] CHO, DiI fluorescence, dry powder, set 10 (AID 624029); type: functional
[5] = A549 cell cytotoxicity, dose response, cytotoxicity control, plate reader, cherry-pick, antagonist series (AID 743412); type: functional, cell-based
[6] = LGR2 antagonists, dose response, cell-based, HEK293, CRE-luciferase reporter, cherry pick (AID 743342); type: functional
[7] = target: T2, Sentrin-specific protease 8 (Homo sapiens, UniProt Q96LD8); type: functional
T2 sequence (Q96LD8 whole entry): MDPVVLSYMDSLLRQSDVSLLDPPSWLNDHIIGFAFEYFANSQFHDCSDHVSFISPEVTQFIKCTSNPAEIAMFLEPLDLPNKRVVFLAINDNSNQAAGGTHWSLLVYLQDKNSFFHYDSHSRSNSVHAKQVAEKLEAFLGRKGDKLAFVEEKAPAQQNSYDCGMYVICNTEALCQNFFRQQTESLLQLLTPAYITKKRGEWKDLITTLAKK

[8] = target: T2, Sentrin-specific protease 8; type: functional; remark: listed apart in the source
fMet-Leu-Phe receptor = fMet-Leu-Phe receptor (Homo sapiens, UniProt P21462); test: FPR ligands, dose response (AID 519); type: functional
[9] = BHK-21 cell cytotoxicity, cytotoxicity control for flavivirus guanylyltransferase probe project, secondary screen (AID 624078); type: functional
Albumin = Albumin (Bos taurus, UniProt P02769); test: Counterscreen for inhibitors of T-cell receptor (TCR)-CD3 interaction: Fluorescence-based biochemical high throughput dose response assay to identify inhibitors of T-cell receptor (TCR)-CD3 interaction using a TAMRA-labeled BSA probe.; type: functional
[10] = target: T3, Probable nicotinate-nucleotide adenylyltransferase (Staphylococcus aureus (strain N315), UniProt P65502); type: functional, Staphylococcus aureus subsp. aureus N315;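 for IC50 Mean: confirmatory dose-response retesting of NadD inhibitor hits first found in an ultra-high-throughput screen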
[11] = target: T3, Probable nicotinate-nucleotide adenylyltransferase; type: functional, Staphylococcus aureus subsp. aureus N315; settings: read-out: IC50_Mean
H9c2 = test: cells; type: functional, cell-based; settings: Rattus norvegicus, H9c2, Myocardium;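 note: confirmatory concentration-response retest of ultra-high-throughput screening hits for modulation of myocardial damage; cell death induced by hydrogen peroxide oxidative stress; compound pretreatment for 60 min then peroxide exposure for 2 h; potency is for protecting the cells against peroxide damage rather than for killing them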
[12] = target: Endoplasmic reticulum aminopeptidase 1 (Homo sapiens, UniProt Q9NZ08); test: ERAP1 aminopeptidase inhibitors, dose response, biochemical, cherry-pick, set 2, plate reader (AID 743314)
Aminopeptidase N = target: T4, Aminopeptidase N (Plasmodium falciparum FcB1/Columbia, UniProt O96935); test: P. falciparum M1AAP inhibitors, biochemical, fluorogenic H-Leu-NHMec substrate, 1536-well (AID 1445); parameters: species or system Plasmodium falciparum 3D7, 3D7
T4 sequence (O96935 whole entry): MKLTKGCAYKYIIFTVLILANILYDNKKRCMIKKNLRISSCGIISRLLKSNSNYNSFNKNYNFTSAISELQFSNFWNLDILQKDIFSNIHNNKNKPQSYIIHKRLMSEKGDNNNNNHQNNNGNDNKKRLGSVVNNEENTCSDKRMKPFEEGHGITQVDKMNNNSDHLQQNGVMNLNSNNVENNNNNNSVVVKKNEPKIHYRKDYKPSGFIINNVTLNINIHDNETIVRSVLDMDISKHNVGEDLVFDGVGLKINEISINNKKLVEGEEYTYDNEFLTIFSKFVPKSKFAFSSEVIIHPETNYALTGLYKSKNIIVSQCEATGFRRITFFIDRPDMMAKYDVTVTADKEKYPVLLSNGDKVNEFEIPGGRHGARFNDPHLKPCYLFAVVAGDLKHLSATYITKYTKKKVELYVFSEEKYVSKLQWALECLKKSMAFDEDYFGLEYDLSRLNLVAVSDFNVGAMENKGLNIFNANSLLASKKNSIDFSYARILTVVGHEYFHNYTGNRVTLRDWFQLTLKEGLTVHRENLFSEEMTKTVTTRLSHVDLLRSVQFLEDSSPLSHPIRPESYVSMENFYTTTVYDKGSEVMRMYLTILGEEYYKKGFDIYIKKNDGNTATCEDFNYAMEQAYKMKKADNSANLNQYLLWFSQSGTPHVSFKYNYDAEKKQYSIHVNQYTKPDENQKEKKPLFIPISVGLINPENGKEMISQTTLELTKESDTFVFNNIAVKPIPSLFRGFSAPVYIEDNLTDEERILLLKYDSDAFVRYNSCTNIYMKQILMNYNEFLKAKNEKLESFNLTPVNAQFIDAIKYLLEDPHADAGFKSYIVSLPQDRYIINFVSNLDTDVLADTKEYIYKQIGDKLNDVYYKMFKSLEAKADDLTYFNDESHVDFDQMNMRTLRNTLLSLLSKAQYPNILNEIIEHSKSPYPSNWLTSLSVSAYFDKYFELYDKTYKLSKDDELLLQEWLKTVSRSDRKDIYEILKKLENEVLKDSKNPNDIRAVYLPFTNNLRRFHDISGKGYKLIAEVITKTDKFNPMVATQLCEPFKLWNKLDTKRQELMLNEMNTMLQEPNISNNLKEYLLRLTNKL

[13] = Counterscreen for inhibitors of Trypanosoma brucei methionyl tRNA synthetase (MetRS): Luminescence-based cell-based high throughput dose response assay to identify compounds that are cytotoxic to Jurkat human T lymphocyte cells.; type: functional
[14] = target: T5, Methionyl-tRNA synthetase, putative (Trypanosoma brucei brucei, UniProt Q38C91); type: functional, Trypanosoma brucei brucei strain 927/4 GUTat10.1
[15] = target: T5, Methionyl-tRNA synthetase, putative; type: functional, Trypanosoma brucei brucei strain 927/4 GUTat10.1; remark: listed apart in the source
NS3 = NS3 (Hepatitis C virus, UniProt A3EZJ3); test: HCV NS3 helicase inhibitor potency, dose response, biochemical, fluorescence polarization, ChemBridge library (AID 743264)
Protein skinhead-1 = target: T6, Protein skinhead-1 (Caenorhabditis elegans, UniProt P34707); type: functional
T6 sequence (P34707 whole entry): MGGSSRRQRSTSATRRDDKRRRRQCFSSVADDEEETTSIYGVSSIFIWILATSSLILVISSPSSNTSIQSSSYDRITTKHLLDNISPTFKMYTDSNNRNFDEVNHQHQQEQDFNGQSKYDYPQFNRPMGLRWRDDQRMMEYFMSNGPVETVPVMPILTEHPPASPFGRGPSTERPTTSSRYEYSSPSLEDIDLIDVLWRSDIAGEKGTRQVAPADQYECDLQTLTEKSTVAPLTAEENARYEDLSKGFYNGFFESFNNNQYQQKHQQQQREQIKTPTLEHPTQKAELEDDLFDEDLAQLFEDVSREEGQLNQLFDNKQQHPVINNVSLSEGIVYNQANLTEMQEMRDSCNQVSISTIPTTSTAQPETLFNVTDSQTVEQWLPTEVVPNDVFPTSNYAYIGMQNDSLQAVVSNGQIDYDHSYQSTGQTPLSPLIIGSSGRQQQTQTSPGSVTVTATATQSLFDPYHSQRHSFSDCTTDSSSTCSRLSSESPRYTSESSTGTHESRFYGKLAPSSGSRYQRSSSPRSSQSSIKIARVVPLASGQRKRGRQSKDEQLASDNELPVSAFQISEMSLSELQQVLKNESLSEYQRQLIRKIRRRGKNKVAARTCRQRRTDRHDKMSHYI

HeLa = test: HeLa cell cytotoxicity, dose response, cytotoxicity control for MITF activator project, CellTiter-Glo luminescence, cherry-pick samples (AID 540259); type: functional, cell-based; settings: Homo sapiens
[16] = target: T7, Oxysterols receptor LXR-beta (Homo sapiens, UniProt P55055); type: functional, cell-based;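 note: agonist activity at LXR measured by a cell-based luminescence readout across a dose range, run as a counterscreen for daf-12 agonists; HEK293 cells with Gal4-LXR fusion and GAL4-driven luciferase reporter; potency for activation of Gal4-LXR reporter so compounds are agonists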
T7 sequence (P55055 whole entry): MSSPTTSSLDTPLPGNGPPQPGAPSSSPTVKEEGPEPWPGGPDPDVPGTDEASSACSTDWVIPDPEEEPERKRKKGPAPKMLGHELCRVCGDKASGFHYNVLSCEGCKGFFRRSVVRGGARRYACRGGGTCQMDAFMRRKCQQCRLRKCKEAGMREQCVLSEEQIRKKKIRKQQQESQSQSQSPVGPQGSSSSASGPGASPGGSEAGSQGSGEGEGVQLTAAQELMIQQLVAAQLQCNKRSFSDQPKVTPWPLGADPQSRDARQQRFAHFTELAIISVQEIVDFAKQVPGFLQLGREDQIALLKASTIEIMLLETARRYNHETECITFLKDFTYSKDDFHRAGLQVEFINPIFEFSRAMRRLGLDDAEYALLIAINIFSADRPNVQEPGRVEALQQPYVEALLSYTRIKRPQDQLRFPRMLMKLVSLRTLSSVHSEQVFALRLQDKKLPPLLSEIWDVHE

[17] = HEp-2 cell cytotoxicity, dose response, cytotoxicity control for RSV inhibitor project, HTS (AID 2410); type: functional; settings: human respiratory syncytial virus
[18] = target: Arf-GAP with SH3 domain, ANK repeat and PH domain-containing protein 1 (Homo sapiens, UniProt Q9ULH1); type: functional;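 note: biochemical fluorescence polarization dose–response screen measuring inhibition of ASAP1; ASAP1 GAP domain stimulating GTP hydrolysis by truncated human ARF1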
[19] = target: Potassium channel subfamily K member 3 (Homo sapiens, UniProt O14649); test: TASK1 (KCNK3) potassium channel inhibitors, SAR follow-up, CHO cells, FluxOR thallium flux (AID 652212); type: functional
[20] = target: Potassium channel subfamily K member 9 (Homo sapiens, UniProt Q9NPC2); test: TASK3 (KCNK9) channel inhibitors, thallium flux, SAR follow-up, selectivity assay for TASK1 inhibitor project, cell-based, FluxOR thallium flux, concentration-response (AID 652211); type: functional;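 note: potency is for inhibitors of the channel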
[21] = A Cell-Based Confirmatory Screen for Compounds that Inhibit VEEV, TC-83 (8).; type: functional
[22] = target: Fructose-bisphosphate aldolase (Mycobacterium tuberculosis, UniProt P9WQA3); test: Fluorescence-based biochemical high throughput dose response assay for inhibitors of the fructose-bisphosphate aldolase (FBA) of M. tuberculosis.; type: functional

T5 sequence (Q38C91 whole entry): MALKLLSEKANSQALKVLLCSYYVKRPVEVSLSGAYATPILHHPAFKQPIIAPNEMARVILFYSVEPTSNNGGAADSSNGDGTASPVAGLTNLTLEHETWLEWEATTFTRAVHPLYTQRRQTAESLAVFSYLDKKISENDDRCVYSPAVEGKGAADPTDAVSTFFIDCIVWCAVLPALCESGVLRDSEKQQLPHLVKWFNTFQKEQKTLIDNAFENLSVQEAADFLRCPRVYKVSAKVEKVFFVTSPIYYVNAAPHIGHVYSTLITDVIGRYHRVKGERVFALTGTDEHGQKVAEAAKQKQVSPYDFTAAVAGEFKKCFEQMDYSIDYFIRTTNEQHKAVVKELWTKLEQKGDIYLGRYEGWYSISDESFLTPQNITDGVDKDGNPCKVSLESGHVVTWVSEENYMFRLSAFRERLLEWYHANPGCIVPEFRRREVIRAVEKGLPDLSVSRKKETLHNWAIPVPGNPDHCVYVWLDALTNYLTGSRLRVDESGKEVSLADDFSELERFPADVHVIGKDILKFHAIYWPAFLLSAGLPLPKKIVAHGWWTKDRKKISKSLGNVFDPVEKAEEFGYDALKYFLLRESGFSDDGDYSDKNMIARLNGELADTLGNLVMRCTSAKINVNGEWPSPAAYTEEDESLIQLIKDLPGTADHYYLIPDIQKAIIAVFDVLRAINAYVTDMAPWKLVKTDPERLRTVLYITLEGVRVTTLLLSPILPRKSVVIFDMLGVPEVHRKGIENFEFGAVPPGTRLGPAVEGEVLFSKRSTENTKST
T3 sequence (P65502 whole entry): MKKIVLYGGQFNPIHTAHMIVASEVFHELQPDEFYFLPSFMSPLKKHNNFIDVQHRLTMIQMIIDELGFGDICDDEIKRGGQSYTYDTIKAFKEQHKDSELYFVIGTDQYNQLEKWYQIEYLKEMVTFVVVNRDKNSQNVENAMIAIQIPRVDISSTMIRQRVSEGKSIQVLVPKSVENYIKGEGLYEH
T1 sequence (Q61009 whole entry): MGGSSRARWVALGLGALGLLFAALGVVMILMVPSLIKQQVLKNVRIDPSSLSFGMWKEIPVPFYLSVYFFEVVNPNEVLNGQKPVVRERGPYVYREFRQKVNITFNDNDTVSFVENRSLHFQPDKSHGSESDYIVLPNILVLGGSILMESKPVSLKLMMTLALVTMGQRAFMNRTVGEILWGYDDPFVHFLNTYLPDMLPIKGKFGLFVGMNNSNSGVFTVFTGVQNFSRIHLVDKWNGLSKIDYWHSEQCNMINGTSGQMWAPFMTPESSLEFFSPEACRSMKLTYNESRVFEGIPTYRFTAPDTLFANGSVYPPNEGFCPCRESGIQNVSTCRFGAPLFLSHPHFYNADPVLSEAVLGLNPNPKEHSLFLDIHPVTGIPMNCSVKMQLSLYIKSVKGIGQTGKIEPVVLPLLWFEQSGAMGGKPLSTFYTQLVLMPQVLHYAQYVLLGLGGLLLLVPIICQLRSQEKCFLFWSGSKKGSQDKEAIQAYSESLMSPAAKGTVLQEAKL
Sequence of fMet-Leu-Phe receptor (P21462 whole entry): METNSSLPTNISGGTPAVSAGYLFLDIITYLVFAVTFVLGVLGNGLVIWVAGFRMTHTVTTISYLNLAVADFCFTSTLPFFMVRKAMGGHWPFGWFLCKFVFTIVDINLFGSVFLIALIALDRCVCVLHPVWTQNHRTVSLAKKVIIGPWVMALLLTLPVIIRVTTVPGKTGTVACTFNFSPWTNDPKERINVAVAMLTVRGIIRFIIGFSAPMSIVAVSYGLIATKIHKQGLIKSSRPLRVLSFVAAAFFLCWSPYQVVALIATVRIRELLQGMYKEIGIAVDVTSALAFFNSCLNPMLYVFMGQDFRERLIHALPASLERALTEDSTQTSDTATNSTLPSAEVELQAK
Sequence of Nonstructural protein 1 (Q194T2 whole entry): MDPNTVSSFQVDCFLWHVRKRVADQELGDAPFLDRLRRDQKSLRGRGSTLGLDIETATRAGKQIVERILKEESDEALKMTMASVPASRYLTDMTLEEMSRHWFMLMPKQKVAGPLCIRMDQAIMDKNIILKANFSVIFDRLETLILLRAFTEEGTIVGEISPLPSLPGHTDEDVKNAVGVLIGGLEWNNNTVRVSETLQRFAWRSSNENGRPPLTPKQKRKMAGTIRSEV
Sequence of NS3 (A3EZJ3 whole entry): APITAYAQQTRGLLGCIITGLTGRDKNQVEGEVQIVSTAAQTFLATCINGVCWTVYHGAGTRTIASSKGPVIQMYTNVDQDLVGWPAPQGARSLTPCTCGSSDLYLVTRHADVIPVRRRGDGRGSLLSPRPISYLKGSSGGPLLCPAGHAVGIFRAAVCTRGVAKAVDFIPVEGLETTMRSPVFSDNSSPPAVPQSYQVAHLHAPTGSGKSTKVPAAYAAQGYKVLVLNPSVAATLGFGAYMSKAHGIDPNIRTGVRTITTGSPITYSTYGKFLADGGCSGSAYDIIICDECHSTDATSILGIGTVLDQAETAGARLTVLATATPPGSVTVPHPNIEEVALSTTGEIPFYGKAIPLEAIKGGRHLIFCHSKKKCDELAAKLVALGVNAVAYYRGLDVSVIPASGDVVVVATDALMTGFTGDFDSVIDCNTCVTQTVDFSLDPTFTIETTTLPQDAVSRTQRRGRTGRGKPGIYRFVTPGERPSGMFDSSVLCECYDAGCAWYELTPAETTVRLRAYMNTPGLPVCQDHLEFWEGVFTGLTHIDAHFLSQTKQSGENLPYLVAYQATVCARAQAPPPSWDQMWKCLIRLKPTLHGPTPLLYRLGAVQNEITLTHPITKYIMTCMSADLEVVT
Sequence of Arf-GAP with SH3 domain, ANK repeat and PH domain-containing protein 1 (Q9ULH1 whole entry, the tested form may be a part): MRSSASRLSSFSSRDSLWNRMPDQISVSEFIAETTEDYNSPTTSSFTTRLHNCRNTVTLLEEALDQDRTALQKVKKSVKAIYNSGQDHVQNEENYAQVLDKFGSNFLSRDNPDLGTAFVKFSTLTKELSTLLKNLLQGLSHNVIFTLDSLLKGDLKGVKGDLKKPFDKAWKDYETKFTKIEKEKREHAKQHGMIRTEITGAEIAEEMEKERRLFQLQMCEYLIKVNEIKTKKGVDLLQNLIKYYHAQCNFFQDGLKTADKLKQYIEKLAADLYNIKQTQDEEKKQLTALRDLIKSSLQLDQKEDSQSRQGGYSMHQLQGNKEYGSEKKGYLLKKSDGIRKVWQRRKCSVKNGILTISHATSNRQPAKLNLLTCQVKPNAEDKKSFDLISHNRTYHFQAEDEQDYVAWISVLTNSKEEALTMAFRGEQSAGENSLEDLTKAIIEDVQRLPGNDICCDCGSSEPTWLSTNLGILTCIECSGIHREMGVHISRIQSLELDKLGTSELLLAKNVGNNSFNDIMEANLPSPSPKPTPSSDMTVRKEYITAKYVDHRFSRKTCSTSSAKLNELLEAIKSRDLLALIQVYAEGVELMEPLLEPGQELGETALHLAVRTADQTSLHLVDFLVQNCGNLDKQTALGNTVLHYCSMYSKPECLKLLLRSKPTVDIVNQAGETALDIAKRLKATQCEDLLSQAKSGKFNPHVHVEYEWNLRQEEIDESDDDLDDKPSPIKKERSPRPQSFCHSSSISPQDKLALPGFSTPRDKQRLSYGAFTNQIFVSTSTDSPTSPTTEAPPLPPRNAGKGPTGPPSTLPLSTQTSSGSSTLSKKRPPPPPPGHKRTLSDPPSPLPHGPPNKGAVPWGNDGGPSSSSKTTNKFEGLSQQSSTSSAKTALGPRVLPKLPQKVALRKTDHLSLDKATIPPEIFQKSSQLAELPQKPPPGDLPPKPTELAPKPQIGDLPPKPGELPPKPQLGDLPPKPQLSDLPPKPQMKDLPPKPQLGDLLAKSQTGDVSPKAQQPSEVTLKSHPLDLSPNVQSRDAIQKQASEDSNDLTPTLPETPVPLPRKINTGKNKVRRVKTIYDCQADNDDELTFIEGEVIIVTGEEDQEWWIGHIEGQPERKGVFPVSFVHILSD
Sequence of Potassium channel subfamily K member 9 (Q9NPC2 whole entry): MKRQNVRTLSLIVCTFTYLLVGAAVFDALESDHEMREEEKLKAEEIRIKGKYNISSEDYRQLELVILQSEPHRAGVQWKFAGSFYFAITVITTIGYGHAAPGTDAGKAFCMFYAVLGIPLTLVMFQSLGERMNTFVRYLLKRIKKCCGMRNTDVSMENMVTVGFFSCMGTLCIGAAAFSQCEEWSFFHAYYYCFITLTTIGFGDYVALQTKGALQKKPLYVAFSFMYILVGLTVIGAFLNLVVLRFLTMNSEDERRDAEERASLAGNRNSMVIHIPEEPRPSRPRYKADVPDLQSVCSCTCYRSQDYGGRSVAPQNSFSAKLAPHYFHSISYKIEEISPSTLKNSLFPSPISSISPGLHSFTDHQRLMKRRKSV
Sequence of Potassium channel subfamily K member 3 (O14649 whole entry): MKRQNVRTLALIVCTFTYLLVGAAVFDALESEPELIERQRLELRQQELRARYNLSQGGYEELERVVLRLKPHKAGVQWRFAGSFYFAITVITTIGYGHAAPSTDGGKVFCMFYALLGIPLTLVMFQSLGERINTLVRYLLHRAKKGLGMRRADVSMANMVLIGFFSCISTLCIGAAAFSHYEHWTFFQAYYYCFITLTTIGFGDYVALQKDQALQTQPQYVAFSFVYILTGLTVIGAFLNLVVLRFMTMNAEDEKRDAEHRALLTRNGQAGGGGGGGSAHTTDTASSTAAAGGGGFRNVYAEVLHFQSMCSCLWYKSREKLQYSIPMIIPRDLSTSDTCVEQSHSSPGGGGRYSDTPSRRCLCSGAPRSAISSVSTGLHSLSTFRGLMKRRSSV
Sequence of Protein S100-A4 (P26447 whole entry): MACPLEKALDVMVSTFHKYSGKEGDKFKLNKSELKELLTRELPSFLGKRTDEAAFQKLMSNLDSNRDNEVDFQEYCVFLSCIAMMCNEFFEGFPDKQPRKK

CC1N(C)c2cc(NC(=O)c3ccco3)ccc2C1(C)C (configuration not stated)
AC50 (Protein S100-A4): 1.91 µM (active)
IC50 (Nonstructural protein 1): 69.6 µM (active)

O=C1C=C(Nc2ccc(F)cc2)C(=O)c2ccccc21
AC50 [1]: 0.595 µM (active)
AC50 [2]: > 70 µM (inactive)

C[C@@H]1CN([C@H](C)CO)C(=O)c2cc(NC(=O)C3CCCCC3)ccc2O[C@H]1CN(C)S(=O)(=O)c1cccc(Cl)c1
AC50 [3]: 0.796 µM (active)
AC50 [4]: 1.22 µM (active)

C[C@H]1CCCCO[C@@H](CN(C)C(=O)Nc2ccccc2)[C@@H](C)CN([C@@H](C)CO)C(=O)c2cc(NC(=O)NC3CCCCC3)ccc2O1
AC50 [5]: 43.3 µM (active)
AC50 [6]: 5.33 µM (active)

CCCCO/C(O)=C1\C(C)=NC2(O)c3ccccc3C(=O)C12O (configuration not stated)
IC50 [7]: 4.54 µM (active)
IC50 [8]: 10 µM (active)

CSc1ccccc1NS(=O)(=O)c1ccccc1
Ki (fMet-Leu-Phe receptor): > 66.7 µM (inactive)

O=C(O)CSc1cc(NS(=O)(=O)c2cccc3cccnc23)c2ccccc2c1O
CC50 [9]: 6.1 µM (active)

CCOC(=O)Cn1/c(=N/C(=O)c2cc(-c3cccs3)nc3ccccc23)sc2cc(S(N)(=O)=O)ccc21
IC50 (Albumin): > 94.1 µM (inactive)
IC50 [10]: 14.2 µM (active)
IC50 [11]: 31.4 µM (active)
IC50 (H9c2): > 79 µM (inactive)

CN1CCN(Cc2c(O)ccc3cc(-c4ccccn4)c(=O)oc23)CC1
AC50 [12]: 1.88 µM (active)
IC50 (Aminopeptidase N): 52.2 µM (active)

COc1ccc(OCc2cc(C(=O)NCc3nc(C)cs3)no2)c(Cl)c1
IC50 [13]: 83.3 µM (inactive)
IC50 [14]: 46.9 µM (inactive)
IC50 [15]: 23.5 µM (inactive)

Cc1ccc(C)n1NC1=NC(=O)CS1
IC50 (NS3): 27.2 µM (inactive)

C/C(=N/OCc1ccc(Br)cc1)c1ccccn1
IC50 (Protein skinhead-1): 34.5 µM (active)
AC50 (HeLa): 90.3 µM (active)
EC50 [16]: > 67.6 µM (inactive)

Fc1ccc(Nc2nc(-c3ccncc3)nc3ccccc23)cc1F
CC50 [17]: 45.1 µM (active)
IC50 [18]: 46.5 µM (inactive)

COc1ccc(F)cc1C(=O)Nc1cccc(NC(=O)c2cccc(C)c2)c1
IC50 [19]: 0.225 µM (active)
IC50 [20]: 0.87 µM (active)

CCN1CCN(C)C/C1=N\c1ccc([N+](=O)[O-])cc1C(=O)Nc1ccccc1
IC50 [21]: < 0.22 µM (active)

Cc1nc2oc3c(=O)nc[nH]c3c2c2c1COC(C)(C)C2
IC50 [22]: 2.33 µM (active)

CC(=O)OC[C@@H]1CN(Cc2ccccc2)C[C@H](n2cnc3c(N(C)C(C)C)ncnc32)O1
AC50 (cells): 28.8 µM (active)
